Legend:
HIV-1 BA-L = test: Inhibitory effect on HIV-1 infection to MAGI-CCR5 cell (β-galactosidase activity); format: cell-based; conditions: 100 μl of medium containing 1.6 μM Test Compound plus 100 μl of medium containing 300PFU HIV-1 BA-L; MAGI-CCR5 cells; 37° C., 2 days
Procedure: The plasmid where β-galactosidase gene was ligated downstream of HIV-1 LTR was introduced into CD4 positive HeLa cell, to which human CCR5 was further introduced to obtain transformant MAGI-CCR5. By using said transformant MAGI-CCR5, degree of HIV-1 infection was calculated from β-galactosidase activity (blue color due to decomposition of 5-bromo-4-chloro-3-indolyl-β-D-galactopyranoside). Specifically, MAGI-CCR5 cells were suspended in DMEM medium containing 10% serum to prepare 5×10^4 cells/ml suspension. To each well of 96 well plate was inoculated 200 μl of the suspension, and the cells were cultivated at 37° C. overnight. The medium was removed by means of suction, and to the residue was added 100 μl of the above medium containing 1.6 μM of Test Compound and 100 μl of the above medium containing 300PFU of HIV-1 BA-L cells. The cells were cultivated at 37° C. for 2 days. The medium was removed by means of suction. To the residue was added 200 μl of cell fixative (PBS containing 1% formaldehyde and 0.2% glutaraldehyde), and the mixture was allowed to stand at room temperature for 5 minutes and washed twice with PBS. To the mixture was added 100 μl of staining solution (PBS containing […] and 0.4 mg/ml X-gal), and the mixture was allowed to stand at 37° C. for 50 minutes and washed twice with PBS. The number of blue cells was counted by microscope and defined as the number of cells infected with HIV-1. According to this method, inhibition rate on HIV-1 infection was determined.

human CCR5 = target: T1, human CCR5 (Homo sapiens, UniProt P51681); test: Inhibition of [125I]-RANTES binding to human CCR5 in CHO/CCR5 cells (CCR5 antagonistic activity); conditions: Test Compound 1 μM, 100 pM [125I]-RANTES, room temperature, 40 minutes, read-out: Inhibition Rate (CCR5 binding)
T1 construct: expressed in transfected cells; host or cells: CHO-K1 cells, electroporated with plasmid pCKR5 (pcDNA3.1 backbone), geneticin-selected (CHO/CCR5)
Procedure: Cloning of CCR5 gene was carried out by PCR (polymerase chain reaction) from human spleen cDNA. With using 0.5 ng of spleen cDNA (Toyobo, QUICK-Clone cDNA) as template, PCR was performed in DNA Thermal Cycler 480 (Perkin-Elmer) (reaction conditions: 30 cycles of 95° C. for 1 minute, 60° C. for 1 minute, and 75° C. for 5 minutes) by adding primer set, 5'-[…]-3' (25 pmol) and 5'-[…]-3' (25 pmol), which were designed referring to nucleotide sequence of CCR5 gene reported by Samson et al. (Biochemistry, 35(11), 3362-3367 (1996)) and by using TaKaRa EX Taq (TakaraShuzo). The resultant PCR product was subjected to agarose gel. electrophoresis to collect about 1.0 kb DNA fragment, which was subjected to Original TA Cloning Kit (Funakoshi) to carry out cloning of CCR5 gene.
The plasmid obtained in the above (1) was digested with restriction enzymes XbaI (Takara Shuzo) and BamHI (Takara Shuzo) and subjected to agarose gel electrophoresis to collect about 1.0 kb DNA fragment. The DNA fragment was mixed with plasmid pcDNA3.1 (Funakoshi) for expression in animal cells, said plasmid being digested with XbaI and BamHI, and they were ligated with DNA Ligation Kit Ver.2 (Takara Shuzo). The resulting plasmid was subjected to transformation of competent cell of E. coli JM109 (Takara Shuzo) to obtain plasmid pCKR5.
CHO-K1 cells were grown in 750 ml of tissue culture flask (Becton Dickinson) using Ham's F12 medium (Nihon Pharmaceutical) containing 10% fetal calf serum (Life Tech Oriental) and took off with 0.5 g/L trypsin-0.2 g/L EDTA (Life Tech Oriental). The cells were washed with PBS (Life Tech Oriental), centrifuged (1000 rpm, 5 minutes), and suspended in PBS. With using Gene Pulser (Bio-Rad Laboratories), DNA was introduced into the cells under the conditions shown below. That is, to the cuvette of 0.4 cm gap were added 8×10^6 cells and 10 μg of plasmid pCKR5 for expression of human CCR5, and electroporation was carried out under 0.25 kV of voltage and 960 μF of capacitance. The cells were transferred into Ham's F12 medium (Nihon Pharmaceutical) containing 10% fetal calf serum, and cultivated for 24 hours. The cells were again took off and centrifuged, and suspended in Ham's F12 medium (Nihon Pharmaceutical) containing 10% fetal calf serum and 500 μg/ml of geneticin (Life Tech Oriental). The suspension was diluted to give 10^4 cells/ml of the suspension, which was inoculated on 96 well plate (Becton Dickinson) to give geneticin resistant cells. The resulting geneticin resistant cells were cultivated in 96 well plate (Becton Dickinson), and cells expressing CCR5 were selected from the geneticin resistant cells. That is, in assay buffer (Ham's F12 medium containing 0.5% BSA and 20 mM HEPES (Wako Pure Chemical, pH7.2) to which was added 200 pM of [^125 I]-RANTES (Amersham) as ligand, binding reaction was carried out at room temperature for 40 minutes, and the buffer was washed with cooled PBS. To the buffer was added 50 μl/well of 1M NaOH, and the mixture was stirred. Radioactivity was determined with γ-counter to select CHO/CCR5 cells which specifically bind to the ligand.
The CHO/CCR5 were inoculated on 96 well microplate (5×10^4 cells/well) and cultivated for 24 hours. The medium was removed by means of suction, and to each well was added assay buffer containing Test Compound (1 μM) and then 100 pM of [^125 I]-RANTES (Amersham) as ligand. Binding assay was carried out at room temperature for 40 minutes, and assay buffer was removed by means of suction. Each well was washed twice with cooled PBS, and 200 μl of Microscint-20 (Packard Instrument, Inc.) was added to each well. Radio-activity was determined with Top-Count Micro Scintillation Counter (Packard Instrument, Inc.).
According to the method described above, inhibition rate of Test Compound (whose number is referred to in the following Examples) to CCR5 binding.

T1 sequence (P51681 whole entry): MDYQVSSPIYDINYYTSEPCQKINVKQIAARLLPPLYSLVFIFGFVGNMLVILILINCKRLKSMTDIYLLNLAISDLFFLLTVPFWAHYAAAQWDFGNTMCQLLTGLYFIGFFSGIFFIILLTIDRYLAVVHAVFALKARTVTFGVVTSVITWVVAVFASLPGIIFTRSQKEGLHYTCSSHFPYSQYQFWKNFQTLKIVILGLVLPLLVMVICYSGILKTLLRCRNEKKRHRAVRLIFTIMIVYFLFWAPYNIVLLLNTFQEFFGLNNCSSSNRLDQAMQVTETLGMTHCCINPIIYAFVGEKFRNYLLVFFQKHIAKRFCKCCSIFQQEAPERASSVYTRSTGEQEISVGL

Question: Which results are given for `CCCCOCCOc1ccc(-c2ccc3c(c2)C=C(C(=O)Nc2ccc(CN(C)C4CCOCC4)cc2)CCS3(=O)=O)cc1` [Compound 98, 7-[4-(2-butoxyethoxy)phenyl]-N-[4-[[N-methyl-N-(tetrahydropyran-4-yl)amino]methyl]phenyl]-1,1-dioxo-2,3-dihydro-1-benzothiepine-4-carboxamide]?
Answer: Inhibition Rate (HIV-1 infection) (HIV-1 BA-L): 91%; inhibition at 1 µM (human CCR5): 98%

From patent US6235771A, “Anilide derivative, production and use thereof” (Takeda Chemical Industries, Ltd., priority 1998, dated 2001)
